Like-named read-outs stand apart in the source and are kept apart here.
Key:
[1] = target: T1, human amylin (Homo sapiens, UniProt P10997); details: 10 μM thioflavin-T
T1 sequence (P10997 34-70 limits assumed): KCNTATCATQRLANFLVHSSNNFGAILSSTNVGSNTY
Protocol: Thioflavin-T binding fluorescent assays. The effects of various polycyclic compounds on islet amyloid formation were measured by fluorescence spectroscopy, using a SpectraMAX Gemini XS Fluorescence Spectrophotometer (Molecular Devices Corporation, Sunnyvale, Calif.). Excitation and emission maxima were set to 450 nm and 510 nm respectively using a cutoff filter at 495 nm. Thioflavin-T binds to amylin fibrils, but not to monomeric amylin (Goldsbury et al., (1999), J. Mol. Biol., 285:33-39). […] The rate of amylin fibril formation was determined by following thioflavin-T fluorescence in the presence or absence of the potential inhibitory drug. […] Background fluorescence by acridine and acridine orange in the absence of amylin was subtracted from the experimental results. The control preparation contained human amylin and thioflavin-T in the absence of drug. The rate of fluorescence enhancement under these conditions was used to compare amylin fibril formation in the absence and presence of the drug. All other experimental conditions were identical.
Tri-prolyl amylin and rat amylin with thioflavin-T were also used as additional controls.
Each data point represents the mean±s.e.m of three separate reactions.
Effect of chlorpromazine on enhancement of thioflavin-Tfluorescence by human amylin (FIG. 2). Chlorpromazine (700 μM) (π) was incubated in 10 mM tris p H 7.4, with monomeric human amylin (70 μM) in the presence of thioflavin-T (10 μM). The fluorescence of the reaction was monitored over 24 hours as described in the methods. […] Each data point represents the mean±s.e.m of three separate reactions.
Effect of selected polycylic compounds on enhancement of thioflavin-Tfluorescence by human amylin (FIG. 3). Acridine, acridine orange, neutral red and methylene blue are selected examples of fused tricyclic ring compounds. […] Compound structures are shown adjacent to the appropriate graph. […] Fluorescence was monitored over 24 h as described in the Methods. A preparation containing human amylin and thioflavin-T only (▪), was included as a comparison in the absence of drug. […] Each data point represents the mean±s.e.m of three independent experiments.

[2] = target: T1, human amylin; assay: Radiolabelled precipitation assay of amylin fibril formation; assay type: biochemical; parameters: Amylin is a 37-residue; C-terminally amidated peptide having a disulfide bridge between the cysteines at residues 2 and 7; purchased Bachem Calif; (Torrance, Calif.); host or cells: chemical synthesis; details: for effect on precipitable amyloid formation: 200 μM compound, 10 μM human amylin, 16,000×g (FIG. 8)
Protocol: Radiolabelled Precipitation Assays. The precipitation of radiolabelled human and rat amylin fibrils was used as an independent method to monitor assembly of amylin fibrils in the presence or absence of potential inhibitors of amylin fibril formation. […] Incubation mixtures were then centrifuged at either 16,000×g or 100,000×g, for 20 min, and the amount of [^3H]-human amylin remaining in the supernatant after centrifugation was determined (Beckman LSW 3801 β-counter, USA). Results were expressed as percentages of precipitable counts per minute, relative to total radioactivity in the supernatant.
Incorporation of [^3H]-amylin into amylin fibrils was followed for 24 hours. Human amylin fibrils were precipitated by centrifugation at either 16,000×g (FIG. 7A) or at 100,000×g (FIG. 7B). Rat amylin (10 μM) in the presence of [^3H]-rat amylin was used as a non-fibril forming control (♦) (FIG. 7A). The results are shown as the percentage of precipitable radioactive amylin, relative to total radioactivity in the supernatant at each time point. Each data point represents the mean±s.e.m of three separate reactions.
The incorporation of radioactive monomeric amylin into the human amylin fibrils as they form, can be used to measure the rate at which amylin fibrils form in the presence or absence of a potential inhibitory drug. Amylin fibrils can be separated from solution by centrifugation and the amount of radioactive amylin precipitated in the amylin fibril pellet is then used as a measure of the amount of amylin fibrils present at that time.
Thioflavin-T, although not polycyclic, is widely used in fluorescent assays to measure amylin fibril formation. Incorporation of radioactivity into the pellet of an aliquot of the reaction mixture centrifuged at 16,000×g, for 20 minutes was monitored over the time periods indicated. Rat amylin (10 μM) with [^3H]-rat amylin added was used as a non fibril forming control (∘) in each experiment. The results are shown as the percentage of precipitable radioactive amyloid, relative to total radioactivity in the supernatant at each time point. Each data point represents the mean±s.e.m of three separate experiments.

[3] = tested on: RINm5F cells; assay: Cytotoxicity assay in RINm5F cells (calcein-AM / ethidium homodimer-1 staining); details: for cytotoxicity of amylin peptide to RINm5F cells: 30 μM peptide, 22 h, compared to vehicle control
Protocol: Cell Culture and Cytotoxicity Assays. RINm5F cells were cultured in RPMI 1640 medium containing 10% fetal bovine serum, 290 μg/mL L-glutamine, 100 IU/mL penicillin and 100 μg/mL streptomycin. Cells were plated at a density of 15×1 cells per well, incubated for 48 h, rinsed with PBS and placed in fresh medium containing Congo red. Freshly prepared human amylin in Milli-Q water, was preincubated with Congo red for 30 min, then added to the cell culture medium to give a final concentration of 30 μM. Cells were treated for 22 h with human amylin in the presence or absence of 100 μM Congo red. Cell viability was determined by double-staining with calcein-AM and ethidium homodimer-1. Green fluorescence of live cells and red fluorescence marking nuclei of dead cells were simultaneously visualized using a Zeiss Axiovert S100 microscope equipped with a Zeiss filter set # 09. Photographs were taken at 400× magnification using a Zeiss AxioCam digital camera.
A. Representative fluorescence micrograph of RINm5F cells treated with 30 μM human amylin for 22 h and stained with calcein-AM and ethidium homodimer-1 to show live cells (green) and dead cells (red). […] B. A representative micrograph of RINm5F cells treated with 30 μM human amylin and 100 μM Congo red stained as above. […] The percentage of live cells was determined for cells treated for 22 h with vehicle; 30 μM human amylin; 30 μM human amylin in the presence of 100 μM Congo red; or 30 μM rat amylin. Experiments were repeated independently 10 times except for human amylin plus Congo red (A+CR) which was repeated five times. Error bars represent the s.e.m of live and dead cell counts over 6-12 fields per condition.

[4] = target: T1, human amylin; assay: Electron microscopy of human amylin fibrils; assay type: biochemical; parameters: Amylin is a 37-residue; C-terminally amidated peptide having a disulfide bridge between the cysteines at residues 2 and 7; purchased Bachem Calif; (Torrance, Calif.); host or cells: chemical synthesis
Protocol: Electron Microscopy. […] Samples were removed at various time points and prepared for electron microscopy. Aliquots (8 μl) of the amylin fibril preparations were absorbed to glow-discharged carbon-coated collodion film on 200-mesh copper grids for 1 min. Grids were blotted, washed twice in droplets of deionised water and stained with 2% (w/v) uranyl acetate. Grids were examined in a Phillips Technai transmission electron microscope operated at 120 kV.
Samples were removed at various time points and prepared for electron microscopy according to the procedure described in the methods.
Electron Microscopy of human amylin fibrils in the presence and absence of quinacrine (FIG. 5). A 100 fold molar excess of quinacrine was incubated with human amylin. Samples were removed at various time points and prepared for electron microscopy according to the procedure described in the methods.
Electron Microscopy of human amylin fibrils in the presence and absence of selected polycyclic compounds (FIG. 6). […] Samples were removed and prepared for electron microscopy as described in the Methods. All experiments were performed in triplicate and the pictures above are representative of at least 6 photographs taken at each magnification.

[5] = target: T1, human amylin; assay: Circular dichroism assay of amylin conformation; assay type: biochemical; parameters: Amylin is a 37-residue; C-terminally amidated peptide having a disulfide bridge between the cysteines at residues 2 and 7; purchased Bachem Calif; (Torrance, Calif.); host or cells: chemical synthesis; details: 200 μM Amaranth, approximately 4 μM human amylin, 4% HFIP (FIG. 9F)
Protocol: Preparation of monomeric human amylin. Human amylin (batch 0551805) was obtained from Bachem (Torrence, Calif.). Stock solutions of amylin were prepared as described by Padrick and Miranker, 2002. Human amylin was solubilised in 6M guanidine HCL/50 mM potassium phosphate, pH 6.0, and loaded onto a C18 reversed-phase spin column (Harvard Biosciences). The column was then washed sequentially with 10% Acetonitrile, 0.2% trifluoroacetic acid and water. Monomeric amylin was eluted in 100% HFIP (hexafluoroisopropanol). This stock solution of amylin was then used for all Circular Dichroism experiments.
Circular Dichroism Assay. Circular dichroism spectra were measured on a Pi-Star 180 spectrometer (Applied Photophysics, Leatherhead, UK). Measurements were carried out in either 100% HFIP or 100 mM potassium chloride/50 mM potassium phosphate buffer (pH 7.4) and 2.5% HFIP at 25° C. A stock solution of monomeric human amylin was diluted into buffer to a final concentration of 2.5% HFIP and approximately 5 μM amylin to initiate amylin fibril formation. Spectra were collected at 1 nm intervals with a sample period of 25 μs and adaptive sampling of ±0.01 mdeg. Measurements were recorded immediately following addition of the human amylin stock solution to phosphate buffer in the presence or absence of Congo red or amaranth.
Human amylin (100 μg) was purified on a C18 spin column to give a stock solution in 100% HFIP as described in the methods. A spectrum of this stock solution was collected at 1 nm intervals in a 0.1 cm path length quartz cell (FIG. 9B). The stock solution of monomeric amylin in 100% HFIP was diluted to 2.5% HFIP in 100 mM potassium chloride/50 mM potassium phosphate buffer (pH 7.4). Human amylin concentration was approximately 5 μM. A spectrum was collected at 1 nm intervals in a 0.5 cm path length quartz cell in the absence (FIG. 9C) or presence of 20-fold molar excess of Congo red over human amylin (FIG. 9D). The stock solution of monomeric amylin in 100% HFIP was diluted to 4% HFIP in 100 mM potassium chloride/50 mM potassium phosphate buffer (pH 7.4) containing decreasing concentrations of Congo red as indicated in the Figure. Human amylin concentration was approximately 4 μM. Spectra were collected at 1 nm intervals in a 0.1 cm path length quartz cell (FIG. 9E). The stock solution of monomeric amylin in 100% HFIP was diluted to 4% HFIP in 100 mM potassium chloride/50 mM potassium phosphate buffer (pH 7.4) containing 200 μM Amaranth. Human amylin concentration was approximately 4 μM. Spectra were collected at 1 nm intervals in a 0.1 cm path length quartz cell (FIG. 9F).

[6] = 1200 μM compound (20-fold molar excess), 60 μM human amylin, over 24 h (FIG. 3)
[7] = 1200 μM compound, 60 μM human amylin, 10 mM tris pH 7.4, 24 h (FIG. 6)

c1ccc2nc3ccccc3cc2c1 [acridine]
enhancement of thioflavin-T fluorescence by human amylin [1, 6]: moderate reduction in thioflavin-T enhanced fluorescence
effect on precipitable amyloid formation [2]: no effects on amyloid formation

CN(C)[C@@H]1C(=O)C(C(N)=O)=C(O)[C@@]2(O)C(=O)C3=C(O)c4c(O)cccc4[C@@](C)(O)[C@H]3C[C@@H]12 [tetracycline]
enhancement of thioflavin-T fluorescence by human amylin ([1]; 700 μM compound, 70 μM human amylin, 10 mM tris pH 7.4, over 72 hours (FIG. 1)): initial but significantly decreased formation of a mylin fibril-associated fluorescence up to 2 h ours, followed by a gradual decrease in fluorescence
enhancement of thioflavin-T fluorescence by human amylin [1, 6]: immediate increase in fluorescence occurred, followed by a gradual decrease in fluorescence over the next 24 h
intrinsic cytotoxicity of compound to RINm5F β cells ([3]; relative molar ratios which produced suppression of amyloid aggregation (low μM)): cytotoxic
reduction in the incorporation of radioactive human amylin into precipitable amylin fibrils ([2]; 100 μM tetracycline, 10 μM human amylin, 16,000×g): ~50%
percentage of precipitable amylin fibrils on centrifugation at 100,000×g ([2]; 100 μM tetracycline, 10 μM human amylin, 100,000×g (FIG. 7B)): unaffected
percentage of precipitable amyloid, after the decrease ([2]; 200 μM tetracycline, 10 μM human amylin, 50 h incubation period): ~60%
percentage of precipitable amyloid, before the decrease ([2]; 200 μM tetracycline, 10 μM human amylin, start of the decrease): approximately 85%
rate of formation of human amylin fibrils (electron microscopy) ([4]; 700 μM tetracycline, 70 μM human amylin, 1.5 hours and 5 hours): appears to slow the rate of formation of human amylin fibrils
morphology of human amylin fibrils (electron microscopy) ([4]; 700 μM tetracycline, 70 μM human amylin, 29 hours and 48 hours): short fragmented fibrils
morphology of human amylin fibrils (electron microscopy) [4, 7]: short fragmented structures
morphology of pre-formed amylin fibrils (electron microscopy) ([4]; human amylin pre-incubated for 20 h, then tetracycline for 48 h): fragments of amylin fibrils interdispersed with smaller fibrils

Cc1ccc2c(c1)sc(-c1ccc(N(C)C)cc1)[n+]2C.[Cl-] [thioflavin-T]
effect on precipitable amyloid formation [2]: no effects on amyloid formation

CN(C)c1ccc2nc3ccc(N(C)C)cc3[s+]c2c1 [methylene blue]
enhancement of thioflavin-T fluorescence by human amylin [1, 6]: no increase in thioflavin-T enhanced fluorescence
enhancement of thioflavin-T fluorescence by human amylin ([1]; 1200 μM compound (20-fold molar excess), 60 μM human amylin, over 24 h (FIG. 3), listed as Methylene blue): complete inhibition
effect on precipitable amyloid formation [2]: no effects on amyloid formation
effect on precipitable amyloid formation ([2]; listed as Methylene blue): no effect

human amylin
cytotoxicity of amylin peptide to RINm5F cells [3]: significant increase in cell death

rat amylin: synthetic rat amylin from Bachem; non-fibril forming control
cytotoxicity of amylin peptide to RINm5F cells [3]: not cytotoxic

CCN(CC)CCCC(C)Nc1c2ccc(Cl)cc2nc2ccc(OC)cc12 (stereo not drawn) [quinacrine]
rate of human amylin fibril formation (electron microscopy) ([4]; 7000 μM quinacrine, 70 μM human amylin, 1.5, 5 and 26 hours): appears to slow the rate of human amylin fibril formation
morphology of human amylin fibrils (electron microscopy) ([4]; 7000 μM quinacrine, 70 μM human amylin, 5 hours and 26 hours): large aggregates with few defined fibrils

CN(C)CCCN1c2ccccc2Sc2ccc(Cl)cc21 [chlorpromazine]
inhibition of amylin fibril formation ([1]; 700 μM chlorpromazine, 70 μM human amylin, over 24 hours (FIG. 2)): approximately 60%
enhancement of thioflavin-T fluorescence by human amylin [1, 6]: little inhibition of amylin fibril associated thioflavin-T fluorescence enhancement
effect on precipitable amyloid formation [2]: no effects on amyloid formation
morphology of human amylin fibrils (electron microscopy) [4, 7]: still formed characteristic amylin fibrils

O=S(=O)([O-])c1ccc2c(N=Nc3ccc(S(=O)(=O)[O-])c4ccccc34)c(O)c(S(=O)(=O)[O-])cc2c1.[Na+].[Na+].[Na+] [Amaranth]
effect on β-conformer formation of human amylin (circular dichroism) [5]: prevents formation of β-conformers and instead arrests the amylin peptide in an α-helical conformation

From patent US20030186946A1, “Suppression of cytotoxic protein conformers” (priority 2002, published 2003)
